These results are taken from patent US9242973B2, “Chromane compounds” (CoMentis, Inc., priority 2012, dated 2016).

Where a name gives a salt, the structure may show the parent alone.

For the first experiment, the system named is Aβ production in SK-N-BE(2) neuroblastoma cells. Kind of experiment: Test Example 3: Aβ production inhibition in cell (Aβ40 ELISA, SK-N-BE(2)). As to conditions: Homo sapiens, SKNBE2, 6 h, read-out: Test Example 3 IC50. A general note: An ELISA detects its analyte on a solid surface through an enzyme-linked reagent.
For `CC1(C)Oc2ccc(NC(=O)c3ccc(Cl)cn3)cc2C2(COC(N)=N2)C12COC2` (stereo not shown) [Example 27, N-(2-amino-2′,2′-dimethyldispiro[1,3-oxazole-4,4′-chromene-3′,3″-oxetan]-6′-yl)-5-chloropyridine-2-carboxamide], the 50% inhibitory concentration (IC50) (in general, the concentration that inhibits the measured activity by half) is 9.4 nM.

Still in this experiment, the particulars now being: Homo sapiens, SKNBE2, 6 h, read-out: Test Example 3 IC50, SK-N-BE(2) cells, 6 hours, Aβ40 ELISA normalized by viability.
In the case of `C[C@@H]1Oc2ccc(-c3cccnc3F)cc2[C@@]2(COC(N)=N2)C12COC2` (racemic) [RP 79], the IC50 turned out to be 450 nM. Same read-out and setting: for `COc1cncc(-c2ccc3c(c2)[C@@]2(COC(N)=N2)C2(COC2)[C@@H](C)O3)c1` (racemic) [RP 81] the value was 510 nM; for `CC1(C)Oc2ccc(-c3cncnc3)cc2C2(COC(N)=N2)C12COC2` (single isomer, unassigned) [RP 51b, 2′,2′-dimethyl-6′-(pyrimidin-5-yl)dispiro[1,3-oxazole-4,4′-chromene-3′,3″-oxetan]-2-amine], 72 nM. On the same count and under the same terms, for `CC#Cc1cncc(-c2ccc3c(c2)C2(COC(N)=N2)C2(CC2)CO3)c1` (single isomer, unassigned) [RP 52a, 6′-[5-(prop-1-yn-1-yl)pyridin-3-yl]dispiro[cyclopropane-1,3′-chromene-4′,4″-[1,3]oxazol]-2″-amine] the value was 75 nM; for `CC1(C)Oc2ccc(NC(=O)c3ccc(Cl)cn3)cc2[C@@]2(COC(N)=N2)C12COC2` [Example 218, N-[(4S)-2-amino-2′,2′-dimethyldispiro[1,3-oxazole-4,4′-chromene-3′,3″-oxetan]-6′-yl]-5-chloropyridine-2-carboxamide], 0.78 nM; for `CC1(C)Oc2ccc(NC(=O)c3ccc(Br)cn3)cc2[C@@]2(COC(N)=N2)C12COC2` [Example 219], 2.2 nM. As to `CC1(C)Oc2ccc(NC(=O)c3ccc(Cl)cn3)cc2[C@@]2(COC(N)=N2)C12CC2` [Example 221], the half-maximal inhibitory concentration (IC50) turned out to be 0.16 nM. Take `CC1(C)Oc2ccc(NC(=O)c3ccc(F)cn3)cc2[C@@]2(COC(N)=N2)C12CC2` [Example 222]: the IC50 was 0.62 nM. Same read-out and setting: for `COc1cnc(C(=O)Nc2ccc3c(c2)[C@@]2(COC(N)=N2)C2(CC2)C(C)(C)O3)cn1` [Example 223, N-[(4′R)-2″-amino-2′,2′-dimethyldispiro[cyclopropane-1,3′-chromene-4′,4″-[1,3]oxazol]-6′-yl]-5-me thoxypyrazine-2-carboxamide] the value was 3.1 nM. On the same count and under the same terms, the value for `CC1(C)Oc2ccc(NC(=O)c3cnc(C(F)F)cn3)cc2[C@@]2(COC(N)=N2)C12CC2` [Example 224, N-[(4′R)-2″-amino-2′,2′-dimethyldispiro[cyclopropane-1,3′-chromene-4′,4″-[1,3]oxazol]-6′-yl]-5-(difluoromethyl)pyrazine-2-carboxamide] was 0.63 nM; that for `COCc1cnn(-c2ccc3c(c2)C2(COC(N)=N2)C2(COC2)C2(CCC2)O3)c1` (stereo not shown) [RP 4] was 7200 nM; that for `NC1=NC2(CO1)c1cc(-c3cncnc3)ccc1OC1(CCC1)C21COC1` (stereo not shown) [RP 5] was 590 nM. Still for that read-out and setting: the value for `CC1(C)Oc2ccc(Br)cc2C2(COC(N)=N2)C12COC2` (stereo not shown) [RP 6, 6′-bromo-2′,2′-dimethyldispiro[1,3-oxazole-4,4′-chromene-3′,3″-oxetan]-2-amine] was 3900 nM. Consider `NC1=NC2(CO1)c1cc(Br)ccc1OC(CC1CC1)C21COC1` (stereo not shown) [RP 16b], for which the IC50 stood at 4800 nM. `COCC#Cc1cncc(-c2ccc3c(c2)C2(COC(N)=N2)C2(COC2)CO3)c1` (stereo not shown) [RP 19, 6′-[5-(3-methoxyprop-1-yn-1-yl)pyridin-3-yl]dispiro[1,3-oxazole-4,4′-chromene-3′,3″-oxetan]-2-amine]: the IC50 is 430 nM. Same read-out and setting: for `CC#Cc1cc(-c2ccc3c(c2)C2(COC(N)=N2)C2(COC2)CO3)ccn1` (stereo not shown) [RP 20] the value was 580 nM; for `CC#Cc1cc(-c2ccc3c(c2)C2(COC(N)=N2)C2(COC2)CO3)ncn1` (stereo not shown) [RP 21], 410 nM. Regarding `CC#Cc1cncc(-c2ccc3c(c2)C2(COC(N)=N2)C2(COC2)CO3)n1` (stereo not shown) [RP 22], the IC50 was found to be 2900 nM. For `C#Cc1cncc(-c2ccc3c(c2)C2(COC(N)=N2)C2(COC2)CO3)c1` (stereo not shown) [RP 23], the 50% inhibitory concentration (IC50) was found to be 900 nM. With `COc1cccnc1Nc1ccc2c(c1)C1(COC(N)=N1)C1(COC1)CO2` (stereo not shown) [RP 26], the 50% inhibitory concentration (IC50) worked out at 69 nM. Still for that read-out and setting: for `NC1=NC2(CO1)c1cc(NC(=O)c3ccc(F)cn3)ccc1OCC21CC1` (stereo not shown) [RP 31, N-(2″-aminodispiro[cyclopropane-1,3′-chromene-4′,4″-[1,3]oxazol]-6′-yl)-5-fluoropyridine-2-carboxamide] the value was 61 nM; for `COc1ccc(F)c(-c2ccc3c(c2)C2(COC(N)=N2)C2(COC2)CO3)c1` (stereo not shown) [RP 33], 950 nM. Same read-out and setting: the value for `NC1=NC2(CO1)c1cc(-c3cc(Cl)cnc3F)ccc1OCC21COC1` (stereo not shown) [RP 34] was 260 nM; that for `NC1=NC2(CO1)c1cc(-c3cncnc3)ccc1OCC21COC1` (stereo not shown) [RP 36] was 810 nM.

Consider `NC1=NC2(CS1)c1cc(Br)ccc1OCC21COC1` (stereo not shown) [RP 41, 6′-bromodispiro[oxetane-3,3′-chromene-4′,4″-[1,3]thiazol]-2″-amine], for which the IC50 was > 30000 nM. Same read-out and setting: for `CC1(C)Oc2ccc(Br)cc2C2(CSC(N)=N2)C12COC2` (stereo not shown) [RP 42] the value was 5900 nM. For the compound `NC1=NC2(CO1)c1cc(Nc3ncccc3Cl)ccc1OCC21COC1` (stereo not shown) [RP 43, 6′-(3-chloropyridin-2-yl)aminodispiro[1,3-oxazole-4,4′-chromene-3′,3″-oxetane]-2-amine], the IC50 is 1400 nM. In the case of `NC1=NC2(CO1)c1cc(Nc3ncccc3Cl)ccc1OC1(CCC1)C21COC1` (stereo not shown) [RP 44], the IC50 was 98 nM.

Take `COc1cccnc1Nc1ccc2c(c1)C1(COC(N)=N1)C1(COC1)C1(CCC1)O2` (stereo not shown) [RP 45]: the half-maximal inhibitory concentration (IC50) worked out at 57 nM. The same measure, in the same setting: the value for `CC(C)Cc1ccc2c(c1)C1(COC(N)=N1)C1(COC1)C1(CCC1)O2` (stereo not shown) [RP 46, 6′-isobutyltrispiro[cyclobutane-1,2′-chromene-4′,4″-[1,3]oxazole-3′,3′″-oxetan]-2″-amine] was 1400 nM. As to `CCC(CC)Cc1ccc2c(c1)C1(COC(N)=N1)C1(COC1)C1(CCC1)O2` (stereo not shown) [RP 47], the IC50 stood at 1400 nM. Same read-out and setting: the value for `NC1=NC2(CO1)c1cc(-c3cncc(C#CC4CC4)c3)ccc1OC1(CCC1)C21COC1` (stereo not shown) [RP 48, 6′-[5-(cyclopropylethynyl)pyridin-3-yl]trispiro[cyclobutane-1,2′chromene-4′,4″-[1,3]oxazole-3′,3′″-oxetan]-2″-amine] was 690 nM; that for `CC1(C)Oc2ccc(-c3cncnc3)cc2C2(CSC(N)=N2)C12COC2` (stereo not shown) [RP 54, 2′,2′-dimethyl-6′-(pyrimidin-5-yl)dispiro[oxetane-3,3′-chromene-4′,4″-[1,3]thiazol]-2″-amine hydrochloride] was 79 nM.

Take `CC#Cc1ccnc(-c2ccc3c(c2)C2(COC(N)=N2)C2(COC2)CO3)c1` (stereo not shown) [RP 56]: the half-maximal inhibitory concentration (IC50) came to 740 nM. For `NC1=NC2(CO1)c1cc(-c3cncc(OCC(F)(F)F)c3)ccc1OCC21CC1` (stereo not shown) [RP 58], the IC50 was found to be 180 nM.

For `NC1=NC2(CO1)c1cc(-c3cncc(OCC(F)F)c3)ccc1OCC21CC1` (stereo not shown) [RP 59], the IC50 came out at 76 nM. `NC1=NC2(CO1)c1cc(-c3cncc(OC(F)F)c3)ccc1OCC21CC1` (stereo not shown) [RP 60]: the half-inhibitory concentration (IC50) was determined as 160 nM.

Consider `NC1=NC2(CO1)c1cc(-c3cnc4[nH]ccc4c3)ccc1OCC21CC1` (stereo not shown) [RP 61, 6′-(1H-pyrrolo[2,3-b]pyridin-5-yl)dispiro[cyclopropane-1,3′-chromene-4′,4″-[1,3]oxazol]-2″-amine], for which the IC50 worked out at 350 nM.

On to `CCc1cncc(-c2ccc3c(c2)C2(COC(N)=N2)C2(CC2)CO3)c1` (stereo not shown) [RP 63], for which the IC50 is 3300 nM. For `NC1=NC2(CO1)c1cc(-c3cncc(OCC(F)(F)C(F)F)c3)ccc1OCC21CC1` (stereo not shown) [RP 64], the IC50 is 2300 nM. The same measure, in the same setting: for `COc1ccnc(-c2ccc3c(c2)C2(COC(N)=N2)C2(COC2)C(C)(C)O3)c1` (stereo not shown) [RP 65, 6′-(4-methoxypyridin-2-yl)-2′,2′-dimethyldispiro[1,3-oxazole-4,4′-chromene-3′,3″-oxetan]-2-amine] the value was 49 nM. The same measure, in the same setting: for `CC#Cc1cncc(-c2ccc3c(c2)C2(CSC(N)=N2)C2(COC2)CO3)c1` (stereo not shown) [RP 68] the value was 500 nM.

Turning to `CC1(C)Oc2ccc(-c3cncnc3)cc2C2(COC(N)=N2)C12COC2` (stereo not shown) [RP 69], the half-maximal inhibitory concentration (IC50) worked out at 40 nM. For the compound `NC1=NC2(CO1)c1cc(-c3cncc(F)c3)ccc1OC1(CCC1)C21COC1` (stereo not shown) [RP 70], the IC50 is 960 nM. Regarding `NC1=NC2(CO1)c1cc(-c3cccnc3F)ccc1OC1(CCC1)C21COC1` (stereo not shown) [RP 71], the half-inhibitory concentration (IC50) was determined as 110 nM. Turning to `COc1cncc(-c2ccc3c(c2)C2(COC(N)=N2)C2(COC2)C2(CCC2)O3)c1` (stereo not shown) [RP 72], the IC50 amounted to 68 nM. As to `NC1=NC2(CO1)c1cc(-c3cc(Cl)cnc3F)ccc1OC1(CCC1)C21COC1` (stereo not shown) [RP 73], the concentration for half-maximal inhibition (IC50) stood at 70 nM. Still for that read-out and setting: the value for `Cc1cncc(-c2ccc3c(c2)C2(COC(N)=N2)C2(COC2)C2(CCC2)O3)c1` (stereo not shown) [RP 75, 6′-(5-methylpyridin-3-yl)trispiro[cyclobutane-1,2′-chromene-4′,4″-[1,3]oxazole-3′,3′″-oxetan]-2″-amine] was 1100 nM; that for `CC1(C)Oc2ccc(-c3cccnc3F)cc2C2(COC(N)=N2)C12COC2` (stereo not shown) [RP 82] was 36 nM. Consider `CCC1Oc2ccc(-c3cncnc3)cc2C2(COC(N)=N2)C12COC2` (stereo not shown) [RP 84], for which the half-inhibitory concentration (IC50) was found to be 410 nM. As to `NC1=NC2(CO1)c1cc(-c3cncnc3)ccc1OC1(CCCC1)C21COC1` (stereo not shown) [RP 85], the IC50 came to 77 nM. For `CC#Cc1cncc(-c2ccc3c(c2)C2(COC(N)=N2)C2(COC2)C(CC)O3)c1` (stereo not shown) [RP 86], the IC50 is 58 nM.

In the case of `NC1=NC2(CO1)c1cc(-c3cncnc3)ccc1OC(C1CC1)C21COC1` (stereo not shown) [RP 88], the 50% inhibitory concentration (IC50) was found to be 1400 nM. As to `CCCC1Oc2ccc(-c3cncnc3)cc2C2(COC(N)=N2)C12COC2` (stereo not shown) [RP 91], the half-maximal inhibitory concentration (IC50) was 340 nM. For the compound `CC#Cc1cncc(-c2ccc3c(c2)C2(COC(N)=N2)C2(COC2)C(CCC)O3)c1` (stereo not shown) [RP 92], the IC50 stood at 37 nM. For `CC(C)CC1Oc2ccc(-c3cncnc3)cc2C2(COC(N)=N2)C12COC2` (stereo not shown) [RP 93], the concentration for half-maximal inhibition (IC50) was determined as 370 nM. The same measure, in the same setting: for `CC#Cc1cncc(-c2ccc3c(c2)C2(COC(N)=N2)C2(COC2)C(CCC(F)(F)F)O3)c1` (stereo not shown) [RP 96] the value was 22 nM.
